According to patent EP4806898A1, “HETEROARYL DERIVATIVE COMPOUND AND USE THEREOF” (Voronoi Inc., priority 2023, dated 2025):

How the values were obtained:
UWB1.289 cells = assay: Cell proliferation inhibitory activity in BRCA1/2-mutant or HRD-positive cells (Cell Titer-Glo); format: cell-based; settings: UWB1289; UWB1.289 cells, 144 hours after compound treatment, Cell Titer-Glo, 1.5 nM to 10 µM; read-out: GI50 UWB1.289 BRCA1 mut
Outline: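 GI50 from CellTiter-Glo luminescence after 144 h compound exposure at 37 °C. Cells seeded at 1,000 per well in MEBM/RPMI1640 mix 16–24 h beforehand; […] from 10 µM down to 1.5 nM final (3-fold steps).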

recombinant USP1 protein = molecular target: T1, recombinant USP1 protein (Homo sapiens, UniProt O94782, DEL125-138/DEL229-408/DEL608-737); assay: Binding affinity to recombinant USP1 protein by differential scanning fluorimetry; settings: compound 100 µM; 0.03 mg/mL USP1 (Δ1-66, Δ125-138, Δ229-408, Δ608-737); Tm with compound minus Tm with DMSO; read-out: ΔTm (°C)
T1 sequence (O94782 with tags, fused parts or gaps DEL125-138/DEL229-408/DEL608-737): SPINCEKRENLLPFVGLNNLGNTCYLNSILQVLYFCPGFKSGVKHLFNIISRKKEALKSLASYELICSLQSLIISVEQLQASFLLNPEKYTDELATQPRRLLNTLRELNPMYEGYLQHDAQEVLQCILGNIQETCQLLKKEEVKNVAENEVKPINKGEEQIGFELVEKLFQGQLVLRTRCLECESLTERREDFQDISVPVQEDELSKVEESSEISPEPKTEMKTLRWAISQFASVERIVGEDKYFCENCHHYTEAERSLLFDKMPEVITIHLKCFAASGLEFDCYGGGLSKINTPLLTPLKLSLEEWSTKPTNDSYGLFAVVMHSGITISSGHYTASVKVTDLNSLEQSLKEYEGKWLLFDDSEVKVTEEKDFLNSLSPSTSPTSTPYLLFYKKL
Outline: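 Thermal shift readout: ΔTm is the compound-well melting temperature less the DMSO-well value, measured by real-time PCR. Compounds tested at 100 µM final against 0.03 mg/mL truncated USP1 (Δ1-66, Δ125-138, Δ229-408, Δ608-737) in pH 8.0 Tris buffer containing 150 mM NaCl, 2% glycerol, 1 mM DTT.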

Q: Which results are given for COc1ncnc(C2CC2)c1-c1ncc2cc(C(=O)NCCC3CC(F)(F)C3)n(Cc3ccc(-c4nc(C(F)(F)F)cn4C(C)C)cc3)c2n1 [Example 90, 2-(4-cyclopropyl-6-methoxypyrimidin-5-yl)-N-(2-(3,3-difluorocyclobutyl)ethyl)-7-(4-(1-isopropyl-4-(trifluoromethyl)-1H-imidazol-2-yl)benzyl)-7H-pyrrolo[2,3-d]pyrimidine-6-carboxamide]?
A: GI50 (UWB1.289 cells): < 100 nM; ΔTm at 100 µM (recombinant USP1 protein): > 5 °C

Q: What does the source list for COc1ncnc(C2CC2)c1-c1ncc2cc(C(=O)N3CCC4(CC3)CNCCO4)n(Cc3ccc(-c4nc(C(F)(F)F)cn4C(C)C)cc3)c2n1 [Example 94, (2-(4-cyclopropyl-6-methoxypyrimid in-5-yl)-7-(4-(1-isopropyl-4-(trifluoromethyl)-1H-imidazol-2-yl)benzyl)-7H-pyrrolo[2,3-d]pyrimidin-6-yl)(1-oxa-4,9-diazaspiro[5.5]undecan-9-yl)methanone]?
A: GI50 (UWB1.289 cells): 100 to 500 nM; ΔTm at 100 µM (recombinant USP1 protein): > 5 °C

Q: Which GI50 (UWB1.289 cells) does the source give for CNC(=O)c1cc2cnc(-c3c(OC(F)F)ncnc3C3CC3)nc2n1Cc1ccc(-c2nc(C(F)(F)F)cn2C(C)C)cc1 [Example 95, 2-(4-cyclopropyl-6-(difluoromethoxy)pyrimidin-5-yl)-7-(4-(1-isopropyl-4-(trifluoromethyl)-1H-imidazol-2-yl)benzyl)-N-methyl-7H-pyrrolo[2,3-d]pyrimidine-6-carboxamide] here?
A: 100 to 500 nM

Q: What about the ΔTm at 100 µM (recombinant USP1 protein) of the same compound?
A: > 5 °C

Q: CN[C@H]1CCN(C(=O)c2cc3cnc(-c4c(OC)ncnc4C4CC4)nc3n2Cc2ccc(-c3nc(C(F)(F)F)cn3C(C)C)cc2)C1 [Example 97, (S)-(2-(4-cyclopropyl-6-methoxypyrimidin-5-yl)-7-(4-(1-isopropyl-4-(trifluoromethyl)-1H-imidazol-2-yl)benzyl)-7H-pyrrolo[2,3-d]pyrimidin-6-yl) (3-(methylamino)pyrrolidin-1-yl)methanone] was tested. Which GI50 (UWB1.289 cells) did it give?
A: 100 to 500 nM

Q: What about the ΔTm at 100 µM (recombinant USP1 protein) of the same compound?
A: > 5 °C

Q: Which GI50 (UWB1.289 cells) does the source give for COc1ncnc(C2CC2)c1-c1ncc2cc(C(=O)N3CC(N)C3)n(Cc3ccc(-c4nc(C(F)(F)F)cn4C(C)C)cc3)c2n1 [Example 99, (3-aminoazetidin-1-yl)(2-(4-cyclopropyl-6-methoxypyrimidin-5-yl)-7-(4-(1-isopropyl-4-(trifluoromethyl)-1H-imidazol-2-yl)benzyl)-7H-pyrrolo[2,3-d]pyrimidin-6-yl)methanone] here?
A: < 100 nM

Q: What about the ΔTm at 100 µM (recombinant USP1 protein) of the same compound?
A: > 5 °C

Q: For COc1ncnc(C2CC2)c1-c1ncc2cc(C(=O)NCCN)n(Cc3ccc(-c4nc(C(F)(F)F)cn4C(C)C)cc3)c2n1 [Example 100, N-(2-aminoethyl)-2-(4-cyclopropyl-6-methoxypyrimidin-5-yl)-7-(4-(1-isopropyl-4-(trifluoromethyl)-1H-imidazol-2-yl)benzyl)-7H-pyrrolo[2,3-d]pyrimidine-6-carboxamide], which GI50 (UWB1.289 cells) is on record?
A: 100 to 500 nM

Q: What about the ΔTm at 100 µM (recombinant USP1 protein) of the same compound?
A: > 5 °C

Q: With COc1ncnc(C2CC2)c1-c1ncc2cc(C(=O)N3CC(F)C3)n(Cc3ccc(-c4nc(C(F)(F)F)cn4C(C)C)cc3)c2n1 [Example 101, (2-(4-cyclopropyl-6-methoxypyrimid in-5-yl)-7-(4-(1-isopropyl-4-(trifluoromethyl)-1H-imidazol-2-yl)benzyl)-7H-pyrrolo[2,3-d]pyrimidin-6-yl) (3-fluoroazetidin-1-yl)methanone] as the compound, how does the GI50 (UWB1.289 cells) read?
A: 100 to 500 nM

Q: What about the ΔTm at 100 µM (recombinant USP1 protein) of the same compound?
A: > 5 °C

Q: Which GI50 (UWB1.289 cells) does the source give for COc1ncnc(C2CC2)c1-c1ncc2cc(C(=O)NCCN3CCN(C)CC3)n(Cc3ccc(-c4nc(C(F)(F)F)cn4C(C)C)cc3)c2n1 [Example 102, 2-(4-cyclopropyl-6-methoxypyrimidin-5-yl)-7-(4-(1-isopropyl-4-(trifluoromethyl)-1H-imidazol-2-yl)benzyl)-N-(2-(4-methylpiperazin-1-yl)ethyl)-7H-pyrrolo[2,3-d]pyrimidine-6-carboxamide] here?
A: < 100 nM

Q: What about the ΔTm at 100 µM (recombinant USP1 protein) of the same compound?
A: > 5 °C

Q: Which results are given for COc1ncnc(C2CC2)c1-c1ncc2cc(C(=O)NC3(C)COC3)n(Cc3ccc(-c4nc(C(F)(F)F)cn4C(C)C)cc3)c2n1 [Example 104, 2-(4-cyclopropyl-6-methoxypyrimidin-5-yl)-7-(4-(1-isopropyl-4-(trifluoromethyl)-1H-imidazol-2-yl)benzyl)-N-(3-methyloxetan-3-yl)-7H-pyrrolo[2,3-d]pyrimidine-6-carboxamide]?
A: GI50 (UWB1.289 cells): < 100 nM; ΔTm at 100 µM (recombinant USP1 protein): > 5 °C

Q: Which GI50 (UWB1.289 cells) does the source give for COc1ncnc(C2CC2)c1-c1ncc2cc(C(=O)N3CC[C@@H](O)C3)n(Cc3ccc(-c4nc(C(F)(F)F)cn4C(C)C)cc3)c2n1 [Example 105, (R) - (2-(4-cyclopropyl-6-methoxypyrimid in-5-yl)-7-(4-(1-isopropyl-4-(trifluoromethyl)-1H-imidazol-2-yl)benzyl)-7H-pyrrolo[2,3-d]pyrimidin-6-yl) (3-hydroxypyrrolidin-1-yl)methanone] here?
A: 100 to 500 nM

Q: And the ΔTm at 100 µM (recombinant USP1 protein)?
A: > 5 °C

Q: With COCCNC(=O)c1cc2cnc(-c3c(OC)ncnc3C3CC3)nc2n1Cc1ccc(-c2nc(C(F)(F)F)cn2C(C)C)cc1 [Example 106, 2-(4-cyclopropyl-6-methoxypyrimidin-5-yl)-7-(4-(1-isopropyl-4-(trifluoromethyl)-1H-imidazol-2-yl)benzyl)-N-(2-methoxyethyl)-7H-pyrrolo[2,3-d]pyrimidine-6-carboxamide] as the compound, how does the GI50 (UWB1.289 cells) read?
A: < 100 nM

Q: What about the ΔTm at 100 µM (recombinant USP1 protein) of the same compound?
A: > 5 °C

Q: Which GI50 (UWB1.289 cells) does the source give for COc1ncnc(C2CC2)c1-c1ncc2cc(C(=O)NC[C@@H]3CCCN3C)n(Cc3ccc(-c4nc(C(F)(F)F)cn4C(C)C)cc3)c2n1 [Example 108, (S)-2-(4-cyclopropyl-6-methoxypyrimidin-5-yl)-7-(4-(1-isopropyl-4-(trifluoromethyl)-1H-imidazol-2-yl)benzyl)-N-((1-methylpyrrolidin-2-yl)methyl)-7H-pyrrolo[2,3-d]pyrimidine-6-carboxamide] here?
A: < 100 nM

Q: And the ΔTm at 100 µM (recombinant USP1 protein)?
A: > 5 °C

Q: How did the GI50 (UWB1.289 cells) turn out when CN[C@@H]1CCN(C(=O)c2cc3cnc(-c4c(OC)ncnc4C4CC4)nc3n2Cc2ccc(-c3nc(C(F)(F)F)cn3C(C)C)cc2)C1 [Example 109, (R) - (2-(4-cyclopropyl-6-methoxypyrimid in-5-yl)-7-(4-(1-isopropyl-4-(trifluoromethyl)-1H-imidazol-2-yl)benzyl)-7H-pyrrolo[2,3-d]pyrimidin-6-yl) (3-(methylamino)pyrrolidin-1-yl)methanone] was run?
A: < 100 nM

Q: What about the ΔTm at 100 µM (recombinant USP1 protein) of the same compound?
A: > 5 °C

Q: With COc1ncnc(C2CC2)c1-c1ncc2cc(C(=O)NC3CN(C)C3)n(Cc3ccc(-c4nc(C(F)(F)F)cn4C(C)C)cc3)c2n1 [Example 110, 2-(4-cyclopropyl-6-methoxypyrimidin-5-yl)-7-(4-(1-isopropyl-4-(trifluoromethyl)-1H-imidazol-2-yl)benzyl)-N-(1-methylazetidin-3-yl)-7H-pyrrolo[2,3-d]pyrimidine-6-carboxamide] as the compound, how does the GI50 (UWB1.289 cells) read?
A: 100 to 500 nM

Q: What about the ΔTm at 100 µM (recombinant USP1 protein) of the same compound?
A: > 5 °C

Q: What does the source list for COc1ncnc(C2CC2)c1-c1ncc2cc(C(=O)N(C)C3COC3)n(Cc3ccc(-c4nc(C(F)(F)F)cn4C(C)C)cc3)c2n1 [Example 111, 2-(4-cyclopropyl-6-methoxypyrimidin-5-yl)-7-(4-(1-isopropyl-4-(trifluoromethyl)-1H-imidazol-2-yl)benzyl)-N-methyl-N-(oxetan-3-yl)-7H-pyrrolo[2,3-d]pyrimidine-6-carboxamide]?
A: GI50 (UWB1.289 cells): 100 to 500 nM; ΔTm at 100 µM (recombinant USP1 protein): > 5 °C

Q: For COc1ncnc(C2CC2)c1-c1ncc2cc(C(=O)N3C[C@H](O)[C@H]3C)n(Cc3ccc(-c4nc(C(F)(F)F)cn4C(C)C)cc3)c2n1 [Example 112, (2-(4-cyclopropyl-6-methoxypyrimid in-5-yl)-7-(4-(1-isopropyl-4-(trifluoromethyl)-1H-imidazol-2-yl)benzyl)-7H-pyrrolo[2,3-d]pyrimidin-6-yl)((2R,3S)-3-hydroxy-2-methylazetidin-1-yl)methanone], which GI50 (UWB1.289 cells) is on record?
A: < 100 nM

Q: And the ΔTm at 100 µM (recombinant USP1 protein)?
A: > 5 °C

Q: Which GI50 (UWB1.289 cells) does the source give for COc1ncnc(C2CC2)c1-c1ncc2cc(C(=O)N[C@@H](C)CO)n(Cc3ccc(-c4nc(C(F)(F)F)cn4C(C)C)cc3)c2n1 [Example 113, (S)-2-(4-cyclopropyl-6-methoxypyrimidin-5-yl)-N-(1-hydroxypropan-2-yl)-7-(4-(1-isopropyl-4-(trifluoromethyl)-1H-imidazol-2-yl)benzyl)-7H-pyrrolo[2,3-d]pyrimidine-6-carboxamide] here?
A: < 100 nM

Q: What about the ΔTm at 100 µM (recombinant USP1 protein) of the same compound?
A: > 5 °C

Q: With COc1ncnc(C2CC2)c1-c1ncc2cc(C(=O)NCC(C)C)n(Cc3ccc(-c4nc(C(F)(F)F)cn4C(C)C)cc3)c2n1 [Example 114, 2-(4-cyclopropyl-6-methoxypyrimidin-5-yl)-N-isobutyl-7-(4-(1-isopropyl-4-(trifluoromethyl)-1H-imidazol-2-yl)benzyl)-7H-pyrrolo[2,3-d]pyrimidine-6-carboxamide] as the compound, how does the GI50 (UWB1.289 cells) read?
A: < 100 nM

Q: What about the ΔTm at 100 µM (recombinant USP1 protein) of the same compound?
A: > 5 °C
